molecular target: T1, soluble guanylate cyclase (sGC) (Bos taurus, UniProt P16068+P19687); experiment: Activation of the soluble guanylate cyclase (cGMP enzyme immunoassay); assay type: biochemical; details: sGC isolated from bovine lung; concentration 50 μM; n-fold stimulation of basal enzyme activity = [cGMP]test substance/[cGMP]control
T1 construct: The sGC which was employed had been isolated from bovine lung; from tissue; host or cells: bovine lung
T1 sequence (P16068 1-619): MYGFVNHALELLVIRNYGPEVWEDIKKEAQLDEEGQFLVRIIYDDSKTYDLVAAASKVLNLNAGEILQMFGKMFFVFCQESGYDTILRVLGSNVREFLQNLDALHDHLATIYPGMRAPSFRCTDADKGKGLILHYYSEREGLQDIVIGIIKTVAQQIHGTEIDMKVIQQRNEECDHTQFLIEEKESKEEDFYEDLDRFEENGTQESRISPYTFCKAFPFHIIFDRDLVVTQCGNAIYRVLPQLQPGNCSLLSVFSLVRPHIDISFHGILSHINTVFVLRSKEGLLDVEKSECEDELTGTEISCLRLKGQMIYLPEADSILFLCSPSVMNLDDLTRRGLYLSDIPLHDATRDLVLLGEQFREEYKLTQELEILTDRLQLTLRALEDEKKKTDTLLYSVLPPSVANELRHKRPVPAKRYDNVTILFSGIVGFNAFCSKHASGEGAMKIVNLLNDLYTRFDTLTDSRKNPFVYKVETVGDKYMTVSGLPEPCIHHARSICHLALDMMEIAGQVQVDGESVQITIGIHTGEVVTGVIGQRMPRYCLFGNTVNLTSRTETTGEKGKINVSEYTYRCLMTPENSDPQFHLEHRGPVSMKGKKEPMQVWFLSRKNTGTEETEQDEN
T1 sequence (P19687 1-691): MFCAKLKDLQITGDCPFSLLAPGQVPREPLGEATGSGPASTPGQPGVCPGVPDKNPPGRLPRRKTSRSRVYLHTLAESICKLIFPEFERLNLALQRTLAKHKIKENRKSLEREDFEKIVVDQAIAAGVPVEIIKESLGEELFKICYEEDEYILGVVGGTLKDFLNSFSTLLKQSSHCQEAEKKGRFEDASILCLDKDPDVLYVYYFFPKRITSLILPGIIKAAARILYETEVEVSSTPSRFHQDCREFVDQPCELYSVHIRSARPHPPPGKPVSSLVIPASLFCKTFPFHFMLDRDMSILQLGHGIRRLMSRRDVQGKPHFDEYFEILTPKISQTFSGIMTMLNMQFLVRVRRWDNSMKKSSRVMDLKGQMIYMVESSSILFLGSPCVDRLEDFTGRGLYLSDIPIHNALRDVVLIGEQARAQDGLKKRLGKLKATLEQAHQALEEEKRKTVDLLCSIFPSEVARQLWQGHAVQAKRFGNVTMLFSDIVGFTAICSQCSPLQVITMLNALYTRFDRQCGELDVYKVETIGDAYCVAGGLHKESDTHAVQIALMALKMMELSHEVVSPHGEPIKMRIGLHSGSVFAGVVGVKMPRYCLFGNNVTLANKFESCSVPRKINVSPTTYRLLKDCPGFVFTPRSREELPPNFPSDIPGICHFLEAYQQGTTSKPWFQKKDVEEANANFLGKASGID
Experimental: The activation of the soluble guanylate cyclase (sGC), which catalyzes the conversion of guanosine triphosphate (GTP) into cyclic guanosine monophosphate (cGMP) and pyrophosphate, by the compounds according to the invention was quantified with the aid of an enzyme immunoassay (EIA) from Amersham. To this end, the substances to be tested were initially incubated with sGC in microtiter plates, and the amount of the cGMP formed was then determined.
The sGC which was employed had been isolated from bovine lung (see Methods in Enzymology, volume 195, p. 377). The test solutions (100 μl per well) contained 50 mM triethanolamine (TEA) buffer (pH 7.5), 3 mM MgCl2, 3 mM reduced glutathione (GSH), 0.1 mM GTP, 1 mM 3-isobutyl-1-methylxanthine (IBMX), suitably diluted enzyme solution and the substance to be tested or, in control experiments, the solvent. The substances to be tested were dissolved in dimethyl sulfoxide (DMSO) and the solution was diluted with DMSO/water, so that the final concentration of the substance to be tested in the test mixture was 50 μM. The DMSO concentration in the test mixture was 5% (v/v). The reaction was initiated by addition of the sGC. The reaction mixture was incubated at 37° C. for 15 to 20 minutes and the reaction was then stopped by ice-cooling and addition of the stop reagent (50 mM EDTA, pH 8.0). An aliquot of 50 μl was taken and used for determining the cGMP content using the acetylation protocol of the Amersham cGMP-EIA kit. The absorption of the samples was measured at 450 nm (reference wavelength 620 nm) in a microtiter plate reader. The cGMP concentration was determined using a standard curve which was obtained under the same test conditions. The activation of sGC by a test substance is reported as the n-fold stimulation of the basal enzyme activity which was found in the control experiments (using solvent instead of test substance) (calculated using the formula
n-fold stimulation=[cGMP]test substance/[cGMP]control).

n-fold stimulation	Compound
9.5-fold	COc1cccc(CCN2C(=O)c3c(F)c(F)c(F)c(F)c3C2(O)c2ccc(F)cc2)c1 (stereo not shown) [Example 33, 4,5,6,7-Tetrafluoro-3-(4-fluorophenyl)-3-hydroxy-2-(2-(3-methoxyphenyl)-ethyl)-2,3-dihydroisoindol-1-one]
11.8-fold	COc1cccc(CCN2C(=O)c3ccccc3C2(O)c2ccncc2)c1 (stereo not shown) [Example 29, 3-Hydroxy-2-(2-(3-methoxyphenyl)ethyl)-3-(4pyridyl)-2,3-dihydroisoindol-1-one]
16-fold	COc1cccc(CCN2C(=O)c3ccccc3C2(O)c2ccc(F)cc2)c1 (stereo not shown) [Example 17, 3-(4-Fluorophenyl)-3-hydroxy-2-(2-(3-methoxyphenyl)ethyl)-2,3-dihydro-isoindol-1-one]
2-fold	OCc1ccc(-c2nn(Cc3ccccc3)c3ccccc23)o1 [A, 1-benzyl-3-(5-hydroxymethyl-2-furyl)-indazole, reference compound]
